From patent publication US8188059B2, “Compounds and methods for modulating expression of GCGR” (Isis Pharmaceuticals, Inc., priority 2006, dated 2012)

Tests used:
Type in all cases: in vivo, mouse
[1] = Total and full-length antisense compound concentrations in liver and kidney (Example 4, Table 42); conditions: C57/BL6 mice; single i.p. dose; 48 h; dose not given
Method: (§1) Eight-week old male C57/BL6 mice (Jackson Laboratory, Bar Harbor, Me.) were administered a single dose of GCGR oligonucleotide by intraperitoneal injection at a concentration of […]. Each dose group consisted of four animals. Shown in Table 31 are the sequences, motifs and conjugates of the GCGR antisense compounds used in this study. Bolded residues indicate 2′-O-methoxyethyl (2′-MOE) moieties. All compounds comprise phosphorothioate internucleoside linkages throughout and each cytosine is replaced with 5-methylcytosine. ISIS 386626, ISIS 386627 and ISIS 386628 further comprise a C16 conjugate group attached to the 2′-O position of the sugar via a diamide linkage (2′-OCH2C(═O)N(H)(CH2)4N(H)C(═O)—(CH2)15CH3). GCGR antisense compounds target published GCGR sequences, including Genbank® Accession No. BC031885.1 (SEQ ID NO: 7).
(§2) Mice were sacrificed 48 hours following injection to determine serum transaminase levels (Table 32); liver, white adipose tissue (WAT), spleen and kidney weight (Table 33); cholesterol, triglyceride and glucose levels (Table 34); GCGR mRNA levels (Tables 35-41); and full-length and total oligonucleotide concentration in liver and kidney (Table 42). Endpoints were assessed using methods described herein and well known to those of ordinary skill in the art. Data is included from a pre-treatment bleed (Pre-Bleed) and post-treatment bleed (Post-Bleed).
Treatment with the 2-10-2 MOE gapmers led to a significant dose-dependent decrease in GCGR mRNA expression. […] To determine whether the observed increase in efficiency with the short antisense compounds is due to an increase in antisense compound accumulation, full-length and total antisense compound concentration in the liver and kidney were determined.

GCGR mRNA = GCGR mRNA levels in liver of C57/BL6 mice, single i.p. dose (Example 4, Tables 35-41); conditions: 48 h
Method: as §1, §2
To determine whether the phenotypic changes shown above correlated with a decrease in GCGR mRNA, treated animals were evaluated for levels of target mRNA in liver by real time PCR according to methods described herein. Tables 35 to 41 show results from direct comparisons of the antisense compounds targeting GCGR nucleic acid for their effect on target expression. Results are expressed as percent of saline control.

[2] = Triglyceride, cholesterol and glucose levels, pre-bleed and post-bleed (Example 4, Table 34); set-up: TRIG Pre-Bleed / TRIG Post-Bleed / CHOL Pre-Bleed / CHOL Post-Bleed / Glucose Pre-Bleed / Glucose Post-Bleed: unit not given here; conditions: C57/BL6 mice; for CHOL Pre-Bleed / Glucose Pre-Bleed / TRIG Pre-Bleed: pre-treatment bleed; for CHOL Post-Bleed / Glucose Post-Bleed / TRIG Post-Bleed: post-treatment bleed, 48 h
Method: as §1, §2

[3] = Organ weights: liver, white adipose tissue, spleen, kidney (Example 4, Table 33); conditions: 48 h, C57/BL6 mice
Method: as §1, §2

[4] = ALT & AST levels, C57/BL6 mice (Example 4, Table 32); conditions: for ALT Pre-Bleed / AST Pre-Bleed: pre-treatment bleed; for ALT Post-Bleed / AST Post-Bleed: 48 hours following injection
Method: as §1, §2

Substance: 386628 (antisense TGTCTTGCTGCTTT; chemistry not fully specified) [compound 386628]
- Full-length antisense compound concentration, Kidney [1]: 305 µg/g
- Full-length antisense compound concentration, Liver [1]: 202 µg/g
- Total antisense compound concentration, Kidney [1]: 496 µg/g
- Total antisense compound concentration, Liver [1]: 286 µg/g
- GCGR mRNA levels in liver (GCGR mRNA; 6.25 mg/kg single i.p., Table 38 comparison ISIS 148364 & ISIS 386628): 77% of saline control
- GCGR mRNA levels in liver (GCGR mRNA; 6.25 mg/kg single i.p., Table 41 comparison ISIS 386628 & ISIS 386594): 97% of saline control
- GCGR mRNA levels in liver (GCGR mRNA; 12.5 mg/kg single i.p., Table 38 comparison ISIS 148364 & ISIS 386628): 53% of saline control
- GCGR mRNA levels in liver (GCGR mRNA; 12.5 mg/kg single i.p., Table 41 comparison ISIS 386628 & ISIS 386594): 38% of saline control
- GCGR mRNA levels in liver (GCGR mRNA; 25 mg/kg single i.p., Table 38 comparison ISIS 148364 & ISIS 386628): 18% of saline control
- GCGR mRNA levels in liver (GCGR mRNA; 25 mg/kg single i.p., Table 41 comparison ISIS 386628 & ISIS 386594): 13% of saline control
- GCGR mRNA levels in liver (GCGR mRNA; 50 mg/kg single i.p., Table 38 comparison ISIS 148364 & ISIS 386628): 2% of saline control
- GCGR mRNA levels in liver (GCGR mRNA; 50 mg/kg single i.p., Table 41 comparison ISIS 386628 & ISIS 386594): 4% of saline control
- CHOL Pre-Bleed ([2]; 6.25 mg/kg group): 83
- Glucose Pre-Bleed ([2]; 6.25 mg/kg group): 228
- TRIG Pre-Bleed ([2]; 6.25 mg/kg group): 117
- CHOL Post-Bleed ([2]; 6.25 mg/kg single i.p.): 85
- Glucose Post-Bleed ([2]; 6.25 mg/kg single i.p.): 229
- TRIG Post-Bleed ([2]; 6.25 mg/kg single i.p.): 121
- CHOL Pre-Bleed ([2]; 12.5 mg/kg group): 90
- Glucose Pre-Bleed ([2]; 12.5 mg/kg group): 231
- TRIG Pre-Bleed ([2]; 12.5 mg/kg group): 90
- CHOL Post-Bleed ([2]; 12.5 mg/kg single i.p.): 94
- Glucose Post-Bleed ([2]; 12.5 mg/kg single i.p.): 240
- TRIG Post-Bleed ([2]; 12.5 mg/kg single i.p.): 123
- CHOL Pre-Bleed ([2]; 25 mg/kg group): 84
- Glucose Pre-Bleed ([2]; 25 mg/kg group): 210
- TRIG Pre-Bleed ([2]; 25 mg/kg group): 102
- CHOL Post-Bleed ([2]; 25 mg/kg single i.p.): 85
- Glucose Post-Bleed ([2]; 25 mg/kg single i.p.): 223
- TRIG Post-Bleed ([2]; 25 mg/kg single i.p.): 129
- CHOL Pre-Bleed ([2]; 50 mg/kg group): 88
- Glucose Pre-Bleed ([2]; 50 mg/kg group): 209
- TRIG Pre-Bleed ([2]; 50 mg/kg group): 102
- CHOL Post-Bleed ([2]; 50 mg/kg single i.p.): 95
- Glucose Post-Bleed ([2]; 50 mg/kg single i.p.): 232
- TRIG Post-Bleed ([2]; 50 mg/kg single i.p.): 98
- Organ weight: Kidney ([3]; 6.25 mg/kg single i.p.): 102 % saline control
- Organ weight: Liver ([3]; 6.25 mg/kg single i.p.): 98 % saline control
- Organ weight: Spleen ([3]; 6.25 mg/kg single i.p.): 151 % saline control
- Organ weight: WAT ([3]; 6.25 mg/kg single i.p.): 106 % saline control
- Organ weight: Kidney ([3]; 12.5 mg/kg single i.p.): 99 % saline control
- Organ weight: Liver ([3]; 12.5 mg/kg single i.p.): 101 % saline control
- Organ weight: Spleen ([3]; 12.5 mg/kg single i.p.): 114 % saline control
- Organ weight: WAT ([3]; 12.5 mg/kg single i.p.): 111 % saline control
- Organ weight: Kidney ([3]; 25 mg/kg single i.p.): 109 % saline control
- Organ weight: Liver ([3]; 25 mg/kg single i.p.): 102 % saline control
- Organ weight: Spleen ([3]; 25 mg/kg single i.p.): 113 % saline control
- Organ weight: WAT ([3]; 25 mg/kg single i.p.): 97 % saline control
- Organ weight: Kidney ([3]; 50 mg/kg single i.p.): 99 % saline control
- Organ weight: Liver ([3]; 50 mg/kg single i.p.): 104 % saline control
- Organ weight: Spleen ([3]; 50 mg/kg single i.p.): 126 % saline control
- Organ weight: WAT ([3]; 50 mg/kg single i.p.): 100 % saline control
- ALT Pre-Bleed ([4]; 6.25 mg/kg dose group): 22 IU/L
- AST Pre-Bleed ([4]; 6.25 mg/kg dose group): 40 IU/L
- ALT Pre-Bleed ([4]; 12.5 mg/kg dose group): 28 IU/L
- AST Pre-Bleed ([4]; 12.5 mg/kg dose group): 42 IU/L
- ALT Pre-Bleed ([4]; 25 mg/kg dose group): 24 IU/L
- AST Pre-Bleed ([4]; 25 mg/kg dose group): 40 IU/L
- ALT Pre-Bleed ([4]; 50 mg/kg dose group): 28 IU/L
- AST Pre-Bleed ([4]; 50 mg/kg dose group): 44 IU/L
- ALT Post-Bleed ([4]; single i.p. dose 6.25 mg/kg): 29 IU/L
- AST Post-Bleed ([4]; single i.p. dose 6.25 mg/kg): 59 IU/L
- ALT Post-Bleed ([4]; single i.p. dose 12.5 mg/kg): 35 IU/L
- AST Post-Bleed ([4]; single i.p. dose 12.5 mg/kg): 75 IU/L
- ALT Post-Bleed ([4]; single i.p. dose 25 mg/kg): 32 IU/L
- AST Post-Bleed ([4]; single i.p. dose 25 mg/kg): 57 IU/L
- ALT Post-Bleed ([4]; single i.p. dose 50 mg/kg): 68 IU/L
- AST Post-Bleed ([4]; single i.p. dose 50 mg/kg): 76 IU/L
